Assay results as given in patent US20230312564A1, “AROMATIC RING-LACTAM COMPOUND, PREPARATION METHOD THEREFOR AND USE THEREOF” (SHANGHAI RINGENE BIOPHARMA CO., LTD., priority 2020, published 2023).
pIC50: −log10 of the molar value. Like-named read-outs stand apart in the source and are kept apart here.

Assays:
ERK1/2 kinase = target: T1, ERK1/2 kinase; test: ERK1/2 kinase (Carna) inhibitory activity, Caliper mobility shift; type: biochemical; conditions: for pIC50: read-out: ERK½ IC50
T1 construct: fused on or other part: Carna's ERK products carry a GST tag by vendor knowledge
Procedure: (1) Preparation of 1×Kinase buffer; (2) preparation of compound concentration gradient: the initial test concentration of the tested compound was 10 μM, which was 3-fold diluted to 10 concentrations, and a duplicate test was conducted, and then the tested compound was diluted in a 96 well plate to a 100-fold final concentration of 10 different concentrations of solution. […] Log (inhibitor) vs. response—Variable slope of the analysis software GraphPad Prism 5 was used to fit the dose-effect curve to obtain the IC50 value of each compound on the enzyme activity.
2. […] (A<10 nM, 10 nM≤B<200 nM, C≥200 nM)

Colo-205 cells = test: Colo-205 tumor cell proliferation, CCK-8, 72 hours; type: cell-based; conditions: for pIC50: 72 hours, CCK-8, read-out: Colo-205 IC50; for cell proliferation inhibitory activity (in words): Colo-205
Procedure: 1. Test method: Colo-205 cells (ATCC) in logarithmic growth phase were inoculated into a 96-well culture plate at an appropriate density with 90 μL per well. After overnight culture, different concentrations of the compound were added and acted for 72 hours, and a solvent control group (negative control) was set. After the compound was acted on cells for 72 hours, the effect of the compound on cell proliferation was detected by the cell counting kit CCK-8 (Dojindo), and 10 μL of CCK-8 reagent was added to each well. After the plate was placed in a 37° C. incubator for 2 to 4 hours, a full-wavelength microplate reader SpectraMax 190 was adopted for obtaining the readings with a measured wavelength of 450 nm. […] The IC50 value was obtained by four-parameter regression with the software attached to the microplate reader.

[1] = In-vivo pharmacokinetic parameters in mice; design: species or system Balb-c mice; conditions: for F: PO 5 mg/kg vs IV 1 mg/kg; for AUC(0-inf) / AUC(0-t) / MRT inf / clearance / half-life / Vd / Cmax / Tmax: male, Balb-c, mouse, plasma; for Vd: read-out: Vss
Procedure: Six male SPF grade SD rats or Balb-c mice (Shanghai Sipple-Bikai Laboratory Animal) were divided into two groups, and the tested compounds were prepared into appropriate solutions or suspensions; one group was administered intravenously (with a dose of 1 mg/kg), and the other group was administered orally (with a dose of 5 mg/kg). Blood samples were collected by jugular vein puncture, and each sample was collected with a volume of about 0.2 mL/time point, and heparin sodium was used for anticoagulation. The time points of blood collection were listed below: 5, 15 and 30 min […], 1, 2, 4, 6, 8 and 24 h after administration; the collected blood samples were placed on ice and centrifuged to separate plasma (centrifugation conditions: 8,000 rpm, 6 min, 2 to 8° C.), and the collected plasma was stored at −80° C. before analysis. Plasma samples were analyzed by LC-MS/MS.
The pharmacokinetic parameters such as AUC0-t, AUC0-∞, MRT0-∞, Cmax, Tmax, T1/2 and Vd of the tested compounds and their mean values and standard deviations were calculated by the pharmacokinetic calculation software WinNonlin5.2 non-compartmental model according to the plasma concentration data. In addition, the bioavailability (F) was calculated by the following formula.
For samples with concentrations below the lower limit of quantitation, while pharmacokinetic parameter calculations were performed, samples sampled before Cmax was reached should be calculated as a zero value and samples sampled after Cmax was reached should be calculated as below limit of quantitation (BLQ).

[2] = Homo sapiens, COLO 205, class symbols

Cc1cccc([C@@H](CO)NC(=O)[C@@H](C)N2Cc3ccc(-c4nc(NC5CCOCC5)ncc4F)nc3C2=O)c1 [Embodiment 28]
pIC50 (ERK1/2 kinase; numeric values): 8.43
pIC50 (Colo-205 cells; class symbols): 6.00 to 7.00

COc1cc(F)cc([C@@H](CO)NC(=O)[C@@H](C)N2Cc3ccc(-c4nc(NC5CCOCC5)ncc4Cl)c(F)c3C2=O)c1 [Embodiment 33, (R)-2-(6-(5-Chloro-2-((tetrahydro-2H-pyran-4-yl)amino)pyrimidin-4-yl)-7-fluoro-1-oxoisoindolin-2-yl)-N—((S)-1-(3-fluoro-5-methoxyphenyl)-2-hydroxyethyl)propanamide]
F [1]: 25%
AUC(0-inf) ([1]; IV, 1 mg/kg): 0.276 µM·h
AUC(0-t) ([1]; IV, 1 mg/kg): 0.274 µM·h
MRT inf ([1]; IV, 1 mg/kg): 12 min
clearance ([1]; IV, 1 mg/kg): 102 mL/min/kg
half-life ([1]; IV, 1 mg/kg): 24 min
Vd ([1]; IV, 1 mg/kg): 1.3 L/kg
AUC(0-inf) ([1]; PO, 5 mg/kg): 0.338 µM·h
AUC(0-t) ([1]; PO, 5 mg/kg): 0.322 µM·h
Cmax ([1]; PO, 5 mg/kg): 441 nM
Tmax ([1]; PO, 5 mg/kg): 18 min
half-life ([1]; PO, 5 mg/kg): 90 min

C[C@H](C(=O)N[C@H](CO)c1cccc(Cl)c1)N1Cc2ccc(-c3nc(NC4CCOCC4)ncc3Cl)c(F)c2C1=O [Embodiment 34, (R)-2-(6-(5-Chloro-2-((tetrahydro-2H-pyran-4-yl)amino)pyrimidin-4-yl)-7-fluoro-1-oxoisoindolin-2-yl)-N—((S)-1-(3-chlorophenyl)-2-hydroxyethyl)propanamide]
F [1]: 19%
AUC(0-inf) ([1]; IV, 1 mg/kg): 0.83 µM·h
AUC(0-t) ([1]; IV, 1 mg/kg): 0.825 µM·h
MRT inf ([1]; IV, 1 mg/kg): 18 min
clearance ([1]; IV, 1 mg/kg): 34 mL/min/kg
half-life ([1]; IV, 1 mg/kg): 48 min
Vd ([1]; IV, 1 mg/kg): 0.7 L/kg
AUC(0-inf) ([1]; PO, 5 mg/kg): 0.806 µM·h
AUC(0-t) ([1]; PO, 5 mg/kg): 0.797 µM·h
Cmax ([1]; PO, 5 mg/kg): 791 nM
Tmax ([1]; PO, 5 mg/kg): 18 min
half-life ([1]; PO, 5 mg/kg): 90 min

Cc1cccc([C@@H](CO)NC(=O)[C@@H](C)N2Cc3ccc(-c4ccnc(NC5CC(F)(F)C5)c4)c(F)c3C2=O)c1 [Embodiment 8]
pIC50 (ERK1/2 kinase; class symbols): > 8.00
cell proliferation inhibitory activity (in words) (Colo-205 cells): strong cell proliferation inhibitory activity
pIC50 (Colo-205 cells; [2]): > 7.00

Cc1cccc([C@@H](CO)NC(=O)[C@@H](C)N2Cc3ccc(-c4cc(Nc5ccnn5C)ncc4F)nc3C2=O)c1 [Embodiment 15]
pIC50 (ERK1/2 kinase; class symbols): 6.70 to 8.00
pIC50 (Colo-205 cells; [2]): 6.00 to 7.00

Cc1cccc([C@@H](CO)NC(=O)[C@@H](C)N2Cc3ccc(-c4cc(NC5CCOCC5)ncn4)nc3C2=O)c1 [Embodiment 7]
pIC50 (ERK1/2 kinase; class symbols): 6.70 to 8.00
pIC50 (Colo-205 cells; [2]): 6.00 to 7.00

Cc1cccc([C@@H](CO)NC(=O)[C@@H](C)N2Cc3ccc(-c4nc(NC5CC(F)(F)C5)ncc4Cl)nc3C2=O)c1 [Embodiment 10]
pIC50 (ERK1/2 kinase; numeric values): 7.89
pIC50 (Colo-205 cells; [2]): 6.00 to 7.00

Cc1cccc([C@@H](CO)NC(=O)[C@@H](C)N2Cc3ccc(-c4cc(NC5CCOCC5)ncc4C)nc3C2=O)c1 [Embodiment 14]
pIC50 (ERK1/2 kinase; class symbols): 6.70 to 8.00
pIC50 (Colo-205 cells; [2]): 6.00 to 7.00

COc1cc(F)cc([C@@H](CO)NC(=O)[C@@H](C)N2Cc3ccc(-c4nc(Nc5ccnn5C)ncc4F)c(F)c3C2=O)c1 [Embodiment 45]
enzyme inhibitory activity (in words) (ERK1/2 kinase): extremely strong enzyme inhibitory activity
pIC50 (ERK1/2 kinase; numeric values): > 9.00
cell proliferation inhibitory activity (in words) (Colo-205 cells): strong cell proliferation inhibitory activity
pIC50 (Colo-205 cells; [2]): > 7.00

Cc1cccc([C@@H](CO)NC(=O)[C@@H](C)N2Cc3ccc(-c4nc(NC5COC5)ncc4Cl)nc3C2=O)c1 [Embodiment 17]
pIC50 (ERK1/2 kinase; numeric values): 8.28
pIC50 (Colo-205 cells; [2]): 6.00 to 7.00

Cc1cccc([C@@H](CO)NC(=O)[C@@H](C)N2Cc3ccc(-c4ccnc(Nc5ccnn5C)n4)c(F)c3C2=O)c1 [Embodiment 27]
pIC50 (ERK1/2 kinase; numeric values): 8.89
pIC50 (Colo-205 cells; class symbols): > 7.00

Cc1cccc([C@@H](CO)NC(=O)[C@@H](C)N2Cc3ccc(-c4ccnc(NC5CCOCC5)c4)c(F)c3C2=O)c1 [Embodiment 22]
enzyme inhibitory activity (in words) (ERK1/2 kinase): extremely strong enzyme inhibitory activity
pIC50 (ERK1/2 kinase; numeric values): 8.89
cell proliferation inhibitory activity (in words) (Colo-205 cells): strong cell proliferation inhibitory activity
pIC50 (Colo-205 cells; Homo sapiens, COLO 205, numeric values): 7.17

Cc1cccc([C@@H](CO)NC(=O)[C@@H](C)N2Cc3ccc(-c4cc(NC5CCOCC5)ncn4)c(F)c3C2=O)c1 [Embodiment 6]
pIC50 (ERK1/2 kinase; class symbols): > 8.00
pIC50 (Colo-205 cells; [2]): > 7.00

Cc1cccc([C@@H](CN)NC(=O)[C@@H](C)N2Cc3ccc(-c4nc(NC5CCOCC5)ncc4F)c(F)c3C2=O)c1 [Embodiment 36]
enzyme inhibitory activity (in words) (ERK1/2 kinase): extremely strong enzyme inhibitory activity
pIC50 (ERK1/2 kinase; numeric values): > 9.00
cell proliferation inhibitory activity (in words) (Colo-205 cells): strong cell proliferation inhibitory activity
pIC50 (Colo-205 cells; [2]): > 7.00

Cc1cccc([C@@H](CO)NC(=O)[C@@H](C)N2Cc3ccc(-c4cc(NC5CCOCC5)ncc4Cl)nc3C2=O)c1 [Embodiment 13]
pIC50 (ERK1/2 kinase; class symbols): 6.70 to 8.00
pIC50 (Colo-205 cells; [2]): 6.00 to 7.00

Cc1cccc([C@@H](CO)NC(=O)[C@@H](C)N2Cc3ccc(-c4ccnc(NC5CCOCC5)n4)nc3C2=O)c1 [Embodiment 30]
pIC50 (ERK1/2 kinase; numeric values): 8.16
pIC50 (Colo-205 cells; class symbols): 6.00 to 7.00

Cc1cccc([C@@H](CO)NC(=O)[C@@H](C)N2Cc3ccc(-c4nc(Nc5ccnn5C)ncc4Cl)c(F)c3C2=O)c1 [Embodiment 32]
pIC50 (ERK1/2 kinase; numeric values): 8.85
pIC50 (Colo-205 cells; numeric values): 7.01

(R)-2-(3-(5-Chloro-2-((tetrahydro-2H-pyran-4-yl)amino)pyrimidin-4-yl)-5-oxo-5,7-dihydro-6H-pyrrolo[3,4-b]pyridin-6-yl)-N—((S)-2-hydroxy-1-(m-tolyl)ethyl)propanamide [Comparative compound 3, reference compound]
pIC50 (Colo-205 cells; class symbols): < 6.00

Cc1cccc([C@@H](CO)NC(=O)[C@@H](C)N2Cc3ccc(-c4nc(Nc5ccc(F)c(N6CCOCC6)c5)ncc4Cl)nc3C2=O)c1 [Embodiment 12]
pIC50 (ERK1/2 kinase; numeric values): 7.92
pIC50 (Colo-205 cells; [2]): 6.00 to 7.00

Cc1cccc([C@@H](CO)NC(=O)[C@@H](C)N2Cc3ccc(-c4nc(Nc5ccnn5C)ncc4Cl)c(F)c3C2=O)c1 [Embodiment 32, (R)-2-(6-(5-Chloro-2-((1-methyl-1H-pyrazol-5-yl)amino)pyrimidin-4-yl)-7-fluoro-1-oxoisoindolin-2-yl)-N—((S)-2-hydroxy-1-(m-tolyl)ethyl)propanamide]
F [1]: 26%
AUC(0-inf) ([1]; IV, 1 mg/kg): 0.272 µM·h
AUC(0-t) ([1]; IV, 1 mg/kg): 0.268 µM·h
MRT inf ([1]; IV, 1 mg/kg): 24 min
clearance ([1]; IV, 1 mg/kg): 110 mL/min/kg
half-life ([1]; IV, 1 mg/kg): 60 min
Vd ([1]; IV, 1 mg/kg): 2.7 L/kg
AUC(0-inf) ([1]; PO, 5 mg/kg): 0.347 µM·h
AUC(0-t) ([1]; PO, 5 mg/kg): 0.338 µM·h
Cmax ([1]; PO, 5 mg/kg): 357 nM
Tmax ([1]; PO, 5 mg/kg): 30 min
half-life ([1]; PO, 5 mg/kg): 90 min

Cc1cccc([C@@H](CO)NC(=O)[C@@H](C)N2Cc3ccc(-c4nc(NC5CCOCC5)ncc4Cl)c(F)c3C2=O)c1 [Embodiment 25, (R)-2-(6-(5-Chloro-2-((tetrahydro-2H-pyran-4-yl)amino)pyrimidin-4-yl)-7-fluoro-1-oxoisoindolin-2-yl)-N—((S)-2-hydroxy-1-(m-tolyl)ethyl)propanamide]
F [1]: 43%
AUC(0-inf) ([1]; IV, 1 mg/kg): 0.368 µM·h
AUC(0-t) ([1]; IV, 1 mg/kg): 0.364 µM·h
MRT inf ([1]; IV, 1 mg/kg): 18 min
clearance ([1]; IV, 1 mg/kg): 80 mL/min/kg
half-life ([1]; IV, 1 mg/kg): 42 min
Vd ([1]; IV, 1 mg/kg): 1.6 L/kg
AUC(0-inf) ([1]; PO, 5 mg/kg): 0.796 µM·h
AUC(0-t) ([1]; PO, 5 mg/kg): 0.776 µM·h
Cmax ([1]; PO, 5 mg/kg): 955 nM
Tmax ([1]; PO, 5 mg/kg): 18 min
half-life ([1]; PO, 5 mg/kg): 102 min
